Earlier results in patent publication US12606918B2, “Production of sanitizing fluid using in situ electrolysis” (APPLIED PHAGE GMBH, priority 2024, dated 2026).
Where two headings read alike, the source gives them in different places.

For `[O-][Cl+2]([O-])O` [chlorate], the “ADI (allowable daily intake)” value (as ClO3^−) is given as 0.0024 mg/kg BW·day, the “ADI (allowable daily intake)” value (as NaClO3) is given as 0.003 mg/kg BW·day and the “Arfd (acute reference dose)” value (as NaClO3) is given as 0.003 mg/kg BW·day.
